Measured values published in article PMC12812009, “Optimization of 4‐Amino‐2‐Pyridone Inhibitors of Proprotein Convertase Subtilisin/Kexin Type 9: Integrating Structure–Activity and Structure–Metabolism Relationships” (Chemmedchem, 2025).
Like-named read-outs stand apart in the source and are kept apart here.

Columns and labels:
[1] = In vitro metabolic stability with mouse liver microsomes; assay type: in vitro ADME; conditions: for metabolic stability (in words): MLM + NADPH-generating system; for metabolic stability (in words) / metabolic stability, percentage of intact compound recovered relative to control: 60 min; for metabolic stability, percentage of intact compound recovered relative to control: MLM 1 mg/ml + NADPH-generating system, 10 µM, HPLC
Procedure: All newly synthesized LSF derivatives of 5c were biologically evaluated to determine whether the introduced modifications influenced both metabolic stability and anti‐PCSK9 activity. Microsomal stability assays were conducted to assess the impact of LSF modifications on improving the stability of 5c. In these assays, LSF derivatives were incubated with mouse liver microsomes (MLM) and an NADPH‐generating system for 60 min, followed by HPLC analysis. Control samples included compounds and liver microsomes without the NADPH system, allowing for the assessment of nonspecific binding to microsomes. […] Acylated derivatives 12, 13, and 14 achieved stability levels exceeding 95%, as did the bicyclic derivative 7, which exemplifies a dual‐site functionalization.
MLM (pooled male) were obtained from Xenotech, LLC (Cambridge, Kansas City, USA). Glucose‐6‐phosphate (G6P), oxidized nicotinamide‐adenine‐dinucleotide phosphate (NADP^+), magnesium chloride (MgCl2), and glucose‐6‐phosphate‐dehydrogenase (G6PDH) were supplied by Sigma‐Aldrich (Milan, Italy). Metabolic stability assays were modified from Ferlenghi et al.^[ [33] ^] Briefly, samples were prepared in 100 mM phosphate buffered saline (PBS), pH 7.4, containing 1 mg ml^–1 MLM and a NADPH‐generating system (5 mM MgCl2, 10 mM glucose‐6‐phosphate, 2 mM NADP^+, 1.5 U ml^–1 of glucose‐6‐phosphate dehydrogenase). After incubation (37 °C, 5 min stirring), compounds stock solutions in DMSO were added to a final concentration of 10 µM. The final DMSO percentage in samples was kept at 0.5%. After 60 min, single aliquots of reaction mixture were withdrawn, added of two volumes of acetonitrile, centrifuged (10,000 g, 10 min) and the supernatant was analyzed by HPLC. The unspecific binding to MLM was evaluated by means of control samples in which the compounds were incubated in the absence of a NADPH generating system. The apparatus used for HPLC analysis was a Shimadzu instrument, with a reverse‐phase Nova‐Pak column (Waters) (C18 4 μm 3.9 × 150 mm, Waters). The mobile phase, pumped at a flow rate of 1.2 ml min^–1, consisted of water and acetonitrile in either a 50:50 (v/v) ratio (compounds 5c, 6a, 6b, 6c, 7, 8, 12, 13, 14, 17b) or a 40:60 (v/v) ratio (compounds 11 and 15) or a 30:70 (v/v) ratio (for compounds 17a, 18a, 18b). For compounds 9 and 10, a phosphate buffer (5.98 g L^–1 Na2HPO4, 0.19 g L^–1 KH2PO4, adjusted to pH 7.4 with 85% H3PO4 and supplemented with 1.4 mL L^–1 triethylamine; final pH: 8) and acetonitrile (50:50, v/v) were pumped at a flow rate of 2 mL min^–1. In all cases, column temperature was 35 °C, injection volume was 50 µl, and absorbance was monitored at 254 nm. Serial dilutions for the calibration curves were prepared in the interval 0.5–20 µM in either PBS:CH3CN or H2O:CH3CN mixture (50:50, v/v) for compounds 5c, 6a, 6b, 8, 9, 10, 11, 12, 13, 14, 15, 17a, 17b, 18a, 18b, and in acetonitrile for compounds 6c and 7.

secreted PCSK9 = assay: PCSK9 secretion in culture medium, ELISA on HepG2 supernatants; assay type: cell-based, human; conditions: HepG2, 24 h; for inhibition at 0.5 µM / inhibition at 5 µM / inhibition at 50 µM / IC50: Homo sapiens; for inhibition at 0.5 µM / inhibition at 5 µM / inhibition at 50 µM: read-out: secreted PCSK9 change vs. basal; for IC50: ELISA on supernatants, normalized to viability, Figures 5 and 8 and text, read-out: IC50 (anti-PCSK9 activity, PCSK9 secretion)
Procedure: Next, the levels of secreted PCSK9 were quantified by ELISA assay (Figure 5) only on supernatants collected from cells treated with noncytotoxic concentrations of each compound, as reported in Table 1. Simvastatin (Simva) at 20 and 40 μM and berberine (BBR) at 10 μM were included as controls. As described in the literature, simvastatin induces PCSK9 expression as a compensatory mechanism in response to its cholesterol‐lowering effects, being a pharmacological competitor for HMG‐CoA reductase, the rate‐limiting enzyme of the cholesterol biosynthetic pathway.^[ [29] ^] In contrast, BBR, a natural compound, reduces the expression of PCSK9 levels through transcriptional inhibition, thus increasing the LDLR availability on plasma membrane.^[ [30] ^] As additional and distinct mechanism to the latter, BBR is also able to stabilize the transcript of LDLR, thus increasing its half‐life.^[ [31] ^] As expected, cells stimulated with simvastatin released more PCSK9 into the culture medium compared to unstimulated cells, with a statistically significant concentration‐dependent effect (+73% at 20 μM, p < 0.01; +200% at 40 μM, p < 0.0001), while BBR at 10 μM decreased PCSK9 levels in the medium more than 50% (p < 0.0001 vs. basal) (Figure 5).^[ [32] ^] The amount of PCSK9 secreted into the culture media was measured with an appropriate ELISA kit (R&D System, DY3888 and DY008B2) on the supernatants collected during the MTT assay. Every experimental condition was run in duplicate and the average PCSK9 secretion and standard deviation was calculated. A 4PL regression analysis was used to interpolate unknowns with the standard curve using GraphPad Prism v10.2, according to manufacturers’ instructions. The data were normalized onto the corresponding cell viability, and IC50 was then calculated using GraphPad Prism v10.2.

[2] = MTT cell viability assay in HepG2 cell cultures; assay type: cell-based, human; conditions: human, HepG2 cells, MTT
Procedure: (§1) The approach we set‐up to test the new PCSK9i was based on functional assay, which evaluated at the same time compounds cytotoxicity, and their effect on the secreted PCSK9 on the same cell line. First, cell viability was evaluated in HepG2 cell cultures using the MTT assay (CC50 values are reported in Table 1 and Figure 5 ) after 24 h of incubation in starving conditions (0.4% fetal bovine serum (FBS)). The low FBS concentration, and thus low extracellular lipoproteins, stimulates the sterol responsive element binding protein (SREBP) pathway, inducing the expression of LDLR, PCSK9, HMG‐CoA reductase,^[ [28] ^] thus increasing the uptake of exogenous cholesterol and enhancing the synthesis of endogenous cholesterol. This first step allowed us to calculate the CC50 and identify the noncytotoxic concentrations (viability higher than 90%; Table 1), then tested for PCSK9 inhibitory activity.
(§2) Cell viability was assessed using the MTT assay. Cells were seeded in 96‐well plates (2.5 × 10^4 cells/well) in MEM supplemented with 10% v/v FBS and incubated for 24 h. The cells were then treated with the synthesized compounds dissolved in DMSO at increasing concentrations (from 0.5 to 50 µM) in MEM supplemented with 0.4% v/v FBS for 24 h. Simvastatin [20 and 40 µM] and BBR [10 µM] (both from Merck, St. Louis, Missouri, USA) were used as internal controls as PCSK9 inducer and inhibitor, respectively.^[ [21] ^, [34] ^, [35] ^] The cells were then incubated for 2 h with a solution of MTT [1 mg mL^–1] in MEM supplemented with 0.4% v/v FBS, away from light sources. The supernatant was then collected and 200 µL of DMSO was added to each well to solubilize the newly formed formazan. Finally, an aliquot of 100 µL was taken to measure the absorbance at a wavelength of 570 nm using an absorbance microplate reader (Spark Tecan, Switzerland). Every experimental condition was run in duplicate and the average cell viability and standard deviation was calculated. Cell viability was expressed as the percentage of treated cells compared to untreated (basal) cells. CC50 values for each compound were calculated by interpolating the percentage of cell viability through nonlinear regression analysis of the log (inhibition) versus response using GraphPad Prism software version 8.0 (GraphPad Software Inc., La Jolla, CA).

HepG2 cell cultures = assay: MTT cell viability assay in HepG2 cell cultures; assay type: cell-based, human; conditions: 0.5-50.0 μM, HepG2, MTT, 24 h
Procedure: as §1, §2

[3] = 24 h incubation, HepG2, 0.4% FBS, 0.5-50.0 μM, read-out: CC50 (CI 95%)
[4] = printed in Figures 5 and 8, HepG2, 24 h, read-out: CC50

SMILES: Cc1cc(NCc2ccc(C(F)(F)F)cc2)c(I)c(=O)n1Cc1ccc(C(F)(F)F)cc1 [Compound 6c, 3‐Iodo‐6‐Methyl‐1‐(4‐(Trifluoromethyl)Benzyl)‐4‐((4‐(Trifluoromethyl)Benzyl)Amino)pyridin‐2(1H)‐One]
- metabolic stability (in words) [1]: did not improve compared to the parent compound 5c
- inhibition at 0.5 µM (secreted PCSK9): 20%
- CC50 at 24 h [2, 3]: 46.9 µM

SMILES: Cc1cc(N(Cc2ccc(C(F)(F)F)cc2)C(=O)c2ccccc2)cc(=O)n1Cc1ccc(C(F)(F)F)cc1 [Compound 13, N‐(6‐Methyl‐2‐Oxo‐1‐(4‐(Trifluoromethyl)Benzyl)‐1,2‐Dihydropyridin‐4‐yl)‐N‐(4‐(Trifluoromethyl)Benzyl)Benzamide]
- metabolic stability, percentage of intact compound recovered relative to control [1]: exceeding 95%
- inhibition at 0.5 µM (secreted PCSK9): 17%
- inhibition at 5 µM (secreted PCSK9): 51%
- CC50 at 24 h [2, 4]: > 50 µM

SMILES: Cc1cc(OCc2cccc(F)c2)c(Cc2cccc(F)c2)c(=O)n1Cc1ccc(Cl)cc1 [Compound 18b, 1‐(4‐Chlorobenzyl)‐3‐(3‐Fluorobenzyl)‐4‐((3‐Fluorobenzyl)Oxy)‐6‐Methylpyridin‐2(1H)‐One]
- metabolic stability (in words) [1]: did not show any improvement in metabolic stability compared to 5c
- inhibition at 50 µM (secreted PCSK9): 81%
- IC50 (secreted PCSK9): 3300 nM
- CC50 at 24 h [2, 4]: > 50 µM
- cytotoxicity (in words) (HepG2 cell cultures): nontoxic at all the concentrations tested

SMILES: Cc1cc(OCc2ccc(C(F)(F)F)cc2)c(Cc2ccc(C(F)(F)F)cc2)c(=O)n1Cc1ccc(C(F)(F)F)cc1 [Compound 18a, 6‐Methyl‐1,3‐Bis(4‐(Trifluoromethyl)Benzyl)‐4‐((4‐(Trifluoromethyl)Benzyl)Oxy)pyridin‐2(1H)‐One]
- metabolic stability, percentage of intact compound recovered relative to control [1]: exceeding 95%
- metabolic stability/PCSK9 IC50 ratio (in words) ([1]; with respect to 5c): higher metabolic stability/PCSK9 IC50 ratio
- inhibition at 50 µM (secreted PCSK9): 80%
- IC50 (secreted PCSK9): 2100 nM
- CC50 at 24 h [2, 4]: > 50 µM
- cytotoxicity (in words) (HepG2 cell cultures): nontoxic at all the concentrations tested

SMILES: Cc1cc(NCc2ccc(C(F)(F)F)cc2)c(CN2CCCC2)c(=O)n1Cc1ccc(C(F)(F)F)cc1 [Compound 9, 6‐Methyl‐3‐(Pyrrolidin‐1‐ylmethyl)‐1‐(4‐(Trifluoromethyl)Benzyl)‐4‐((4‐(Trifluoromethyl)Benzyl)Amino)pyridin‐2(1H)‐One]
- metabolic stability (in words) [1]: did not exhibit any enhancements relative to 5c
- effect on PCSK9 secretion (in words) (secreted PCSK9; non-cytotoxic concentrations): moderate but significant inhibition of PCSK9 secretion
- CC50 at 24 h [2, 3]: 22.2 µM

SMILES: Cc1cc(OCc2cccc(F)c2)cc(=O)n1Cc1ccc(Cl)cc1 [Compound 17b, 1‐(4‐Chlorobenzyl)‐4‐((3‐Fluorobenzyl)Oxy)‐6‐Methylpyridin‐2(1H)‐One]
- metabolic stability (in words) [1]: did not show any improvement in metabolic stability compared to 5c
- inhibition at 5 µM (secreted PCSK9): 82%
- IC50 (secreted PCSK9): < 2500 nM
- CC50 at 24 h [2, 3]: 10 µM
